Reference: PMC8533206 (Antioxidants, 2021)
Where “and” joins values, the source holds several entries; their conditions need not be identical. Equal values may be shown once.

Assays:
PC12 cells [1] = test: Cytotoxicity over PC12 cells (MTT assay); type: cell-based; conditions: 24 h
Protocol: PC12 cells were routinely maintained in RPMI-1640 media containing 100 IU/mL penicillin, and 100 μg/mL streptomycin supplemented by 10% heat-inactivated HS, 5% FBS in a humidified incubator containing 5% CO2 and 95% air at 37 °C [25]. The cell culture media was changed every two days. To perform experiments, cells were plated on poly-D-lysine/laminin-coated 24-well plates at a density of 3 × 10^5 cells/well and incubated for at least 24 h to allow cell adhesion.
To examine the effects of the test compounds on cell survival, cells were incubated in low serum media (1% HS, 1% FBS, 100 IU/mL penicillin, and 100 μg/mL streptomycin) with test compounds at the concentrations of 10 and 30 μM or an equivalent volume of vehicle control (DMSO at the final concentration of 0.3%) for 24 h. The media containing test compounds was sonicated at room temperature for 30 min to assure adequate dissolution in the media. To assess the protective effects of the test compounds on 6-OHDA- or rotenone-induced cell death in PC12 cells, cells were pre-treated with the compounds or rasagiline for 4 h. The pre-treated cells were then exposed to 6-OHDA (50 μM) or rotenone (1 μM) for 24 h.
After the desired treatment, cell viability was determined by MTT assay as described previously, with slight modification. Briefly, MTT was added to the cells at the final concentration of 0.5 mg/mL, followed by incubation for 3 h at 37 °C. The supernatants were carefully removed, and then 300 μL of DMSO was added to each well to dissolve formazan precipitate. The absorbance of the dissolved solution was measured at 550 nm using a microplate reader (SpectraMax M2e, Molecular Devices, Sunnyvale, CA, USA). The cell viability was presented as the percentage of the absorbance measured in the vehicle-treated control cells. […] Inhibition (%) = 100 × (Abssample − Abs6-OHDA or rotenone)/(Abscontrol − Abs6-OHDA or rotenone)

PC12 cells [2] = test: Rotenone-induced ROS generation in PC12 cells (H2-DCFDA); type: cell-based, rat; conditions: 10 μM compound, rotenone 1 μM 20 h
Protocol: (§1) The involvement of oxidative stress in the observed reduction in cell viability was investigated using the fluorescent dye H2-DCFDA as described previously. Briefly, cells were loaded with 10 μM H2-DCFDA for 30 min at 37 °C. Subsequently, cells were exposed for 4 h to 10 μM of test compounds followed by the addition of 50 μM 6-OHDA or 1 μM rotenone for 20 h, and fluorescence was measured spectrophotometrically at 488/520 nm in a microplate reader (SpectraMax M2e). N-acetylcysteine (NAC, 5 mM) was included as a […] control for oxidative stress.

[3] = biological target: T1, Human recombinant MAO-B (hMAO-B) (Homo sapiens, UniProt P27338); test: MAO-B inhibition assay (Amplex Red fluorescence, benzylamine substrate); type: biochemical; conditions: for IC50: five doses 10, 1, 0.1, 0.01, 0.001 μM, triplicate; for Selectivity Index (SI): ratio of IC50 (MAO-A)/IC50 (MAO-B); for inhibition at 10 µM / % Inhibition of MAO-B at 10 µM: single dose 10 µM
T1 construct: purchased Sigma-Aldrich; host or cells: insect cells
T1 sequence (P27338 1-520): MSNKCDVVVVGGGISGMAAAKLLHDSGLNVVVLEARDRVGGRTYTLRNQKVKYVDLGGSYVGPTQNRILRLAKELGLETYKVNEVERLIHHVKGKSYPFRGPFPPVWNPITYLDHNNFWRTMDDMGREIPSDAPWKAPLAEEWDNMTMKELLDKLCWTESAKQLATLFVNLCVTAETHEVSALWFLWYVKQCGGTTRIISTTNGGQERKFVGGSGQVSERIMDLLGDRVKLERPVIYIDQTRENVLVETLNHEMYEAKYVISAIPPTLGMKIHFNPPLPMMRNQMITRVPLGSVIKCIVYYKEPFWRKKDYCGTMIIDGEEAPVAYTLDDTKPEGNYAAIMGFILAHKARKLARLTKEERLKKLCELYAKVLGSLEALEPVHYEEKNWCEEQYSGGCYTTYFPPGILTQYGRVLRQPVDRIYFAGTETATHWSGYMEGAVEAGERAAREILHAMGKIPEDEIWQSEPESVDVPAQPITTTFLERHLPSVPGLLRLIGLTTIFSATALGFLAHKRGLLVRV
Protocol: The biological evaluation of the tested compounds over both MAO-A and MAO-B was performed following the previously reported method. The MAO activity was measured in relative fluorescence units (RFU) evoked by peroxidase-catalyzed oxidation of Amplex Red® to resorufin, in which H2O2 generated by MAO reaction was used as the electron donor. Human recombinant MAO-A (hMAO-A) and MAO-B (hMAO-B) enzymes expressed in insect cells were obtained from Sigma-Aldrich. The 2 μL of test compound in DMSO (final concentration: 1–10 μM) was treated with 98 μL of hMAO enzyme solution in 50 mM sodium phosphate buffer (pH 7.4, final protein amounts: ~1.25 μg protein/well for MAO-A and ~2.5 μg protein/well for MAO-B) on 96-well black plate and incubated for 15 min at 37 °C. Then, 100 μL of reaction working solution which is a mixed solution of 400 μM Amplex Red® (Cayman, final concentration: 200 μM), 2 U/mL horseradish peroxidase (Sigma-Aldrich, final concentration: 1 U/mL) and 2 mM substrate (p-tyramine for MAO-A, benzylamine for MAO-B, Sigma-Aldrich, final concentration: 1 mM) in 50 mM sodium phosphate buffer (pH 7.4) were added and incubated for 20 min at 37 °C in the dark. The fluorescent intensity was quantified using a microplate reader (SpectraMax®i3, Molecular Device) with an excitation at 545 nm and an emission at 590 nm. The 50% inhibitory concentrations (IC50) of compounds were determined as the mean ± S.E.M. in triplicate from the dose-response inhibition curves using SigmaPlot® 13.0 (Systat Software Inc., San Jose, CA, USA).

PC12 cells [4] = test: 6-OHDA-induced ROS generation in PC12 cells (H2-DCFDA); type: cell-based, rat; conditions: 10 μM compound, 6-OHDA 50 μM 20 h
Protocol: as §1

Structure (SMILES)	Cytotoxic effect on PC12 cell viability (PC12 cells [1]; 10 μM)	Effect on rotenone-induced intracellular ROS production (PC12 cells [2])	IC50 [3]	Selectivity Index (SI) [3]	inhibition at 10 µM [3] [%]	Effect on 6-OHDA-induced ROS generation (PC12 cells [4])	% Inhibition of MAO-B at 10 µM [3] [%]	Cytotoxic effect on PC12 cell viability (PC12 cells [1]; 30 μM)
O=C(Nc1ccc2c(c1)OCO2)c1ccc2[nH]ccc2c1 [Compound 8e, N-(benzo[d][1,3]dioxol-5-yl)-1H-indole-5-carboxamide]	did not show any cytotoxic effects	attenuated	450 nM and 453 nM	>220	89.6 ± 0.4	significantly decreased	–	–
O=C(Nc1ccc(I)cc1)c1ccc2[nH]ccc2c1 [Compound 8a, N-(4-iodophenyl)-1H-indole-5-carboxamide]	did not show any cytotoxic effects	not effective	27.4 nM	>3649	> 99	not effective	99.3 ± 0.0	–
O=C(Nc1ccc(Br)cc1)c1ccc2[nH]ccc2c1 [Compound 8b, N-(4-bromophenyl)-1H-indole-5-carboxamide]	did not show any cytotoxic effects	attenuated	30 nM and 30.5 nM	>3278	> 99	significantly decreased	99.4 ± 0.0	significant reduction in cell viability
COC(=O)c1ccc2c(ccn2C(=O)c2ccc(Cl)c(Cl)c2)c1 [Compound 7b, Methyl 1-(3,4-dichlorobenzoyl)-1H-indole-5-carboxylate]	did not show any cytotoxic effects	attenuated	330 nM and 328 nM	>305	84.1	significantly decreased	–	–
